Assay results taken from publication PMC6857051, “Proliferative regulation of alveolar epithelial type 2 progenitor cells by human Scnn1d gene” (Theranostics, 2019).

Biological target: T1, δ802αβγ-ENaC (Homo sapiens, UniProt P51168+P51170)
T1 construct: We characterized full-length human δ802-ENaC expressed in both Xenopus oocytes and humanized transgenic mice; expressed in transfected cells; host or cells: Xenopus laevis oocytes injected with cRNA (pGEM HE vector)
T1 sequence (P51168 1-640): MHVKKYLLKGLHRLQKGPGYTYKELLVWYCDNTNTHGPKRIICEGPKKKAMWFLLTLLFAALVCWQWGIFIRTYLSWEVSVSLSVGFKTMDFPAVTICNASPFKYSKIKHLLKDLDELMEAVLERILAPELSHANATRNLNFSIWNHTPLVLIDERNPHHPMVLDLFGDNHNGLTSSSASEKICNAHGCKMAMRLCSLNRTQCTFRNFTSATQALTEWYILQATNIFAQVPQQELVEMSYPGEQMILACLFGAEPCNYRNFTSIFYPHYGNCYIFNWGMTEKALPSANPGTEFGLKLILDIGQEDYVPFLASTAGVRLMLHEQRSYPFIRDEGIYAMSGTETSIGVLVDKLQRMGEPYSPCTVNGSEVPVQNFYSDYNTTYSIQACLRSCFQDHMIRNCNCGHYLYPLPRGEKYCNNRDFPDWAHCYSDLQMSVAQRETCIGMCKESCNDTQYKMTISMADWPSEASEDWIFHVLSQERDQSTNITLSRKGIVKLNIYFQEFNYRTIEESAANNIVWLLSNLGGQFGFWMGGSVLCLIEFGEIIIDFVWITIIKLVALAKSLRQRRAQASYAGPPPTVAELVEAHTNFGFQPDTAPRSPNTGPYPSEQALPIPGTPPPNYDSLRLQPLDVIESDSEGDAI
T1 sequence (P51170 1-649): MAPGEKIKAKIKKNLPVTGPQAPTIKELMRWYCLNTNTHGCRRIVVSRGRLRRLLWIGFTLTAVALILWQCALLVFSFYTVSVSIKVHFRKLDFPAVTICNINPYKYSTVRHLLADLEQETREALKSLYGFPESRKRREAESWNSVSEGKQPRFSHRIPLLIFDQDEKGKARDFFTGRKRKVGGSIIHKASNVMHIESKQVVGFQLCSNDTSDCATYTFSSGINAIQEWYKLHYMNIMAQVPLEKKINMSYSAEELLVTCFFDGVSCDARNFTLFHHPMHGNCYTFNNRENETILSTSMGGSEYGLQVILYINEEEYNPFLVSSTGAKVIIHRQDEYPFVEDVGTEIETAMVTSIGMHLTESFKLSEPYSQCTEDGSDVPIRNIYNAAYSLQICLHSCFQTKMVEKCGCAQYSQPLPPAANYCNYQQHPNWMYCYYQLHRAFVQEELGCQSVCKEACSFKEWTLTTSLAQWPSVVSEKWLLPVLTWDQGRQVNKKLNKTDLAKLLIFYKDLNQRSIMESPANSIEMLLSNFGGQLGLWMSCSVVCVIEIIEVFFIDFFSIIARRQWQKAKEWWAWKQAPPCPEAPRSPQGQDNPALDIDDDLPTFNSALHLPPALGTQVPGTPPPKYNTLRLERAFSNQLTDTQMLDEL
Assay: Two-electrode voltage clamp of δ802αβγ-ENaC expressed in Xenopus oocytes
Type: cell-based
Description: Cloning, in vitro transcription, and heterologous expression of δ802 ENaC and two-electrode voltage clamping assay. δ802 and other ENaC subunits were generated in human ENaC cDNAs cloned into a pGEM HE vector [4], [76]. cRNAs of human α, β, and γ ENaC were prepared as described previously. The stoichiometry of native ENaC complexes is unclear to date. Based on the studies in the last decade, several models have been proposed for αβγ ENaC channels: 1α1β1γ, 2α1β1γ, 3α3β3γ. Based on the EM structure of human αβγ ENaC [35], the currently acceptable model of human αβγ ENaC complexes is heterotrimeric (1α1β1γ). Thus we microinjected δ802:β:γ in a 1:1:1 subunit ratio. Oocytes were surgically removed from appropriately anesthetized adult female Xenopus laevis (Xenopus Express). Briefly, the ovarian tissue was removed from the frog under anesthesia by tricaine-S (Western Chemicals) through a small incision in the lower abdomen. Ovarian lobes were removed and digested in OR-2 calcium-free medium (in mM: 82.5 NaCl, 2.5 KCl, 1.0 MgCl2, 1.0 Na2HPO4, and 10.0 HEPES, pH 7.5) with the addition of 2 mg/ml collagenase (Roche, Indianapolis). Defolliculated oocytes were injected with ENaC cRNAs into the cytosol (25 ng per oocyte in 50 nl of RNase-free water) and incubated in regular OR-2 medium at 18°C. The two-electrode voltage-clamp technique was used to record whole-cell currents 48 h post injection. Oocytes were impaled with two electrodes filled with 3M KCl, having resistance of 0.5 - 2 MΩ. A TEV-200A voltage-clamp amplifier (Dagan) was used to clamp oocytes with concomitant recording of currents. Two reference electrodes were connected to the bath. The continuously perfused bathing solution was ND-96 medium (in mM: 96.0 NaCl, 1.0 MgCl2, 1.8 CaCl2, 2.5 KCl, and 5.0 HEPES, pH 7.5). Whole-cell currents were recorded as previously reported. Experiments were controlled by pCLAMP 10.7 software (Molecular Devices), and currents at -40 mV, -100 mV, and +80 mV were continuously monitored with data recorded at intervals of 10 sec. Data were sampled at the rate of 200 Hz and filtered at 50 Hz.

N=C(N)NC(=O)c1nc(Cl)c(N)nc1N [amiloride]
inhibition of the α-13 peptide-resistant remaining fraction of current amplitude (amiloride 10 μM after α-13 300 μM, δαβγ-ENaC, -100 mV): approximately 80%

Ac-LRGTLPHPLQRLR-NH2 [α-13 peptide]
fraction of total δαβγ-ENaC activity suppressed (α-13 300 μM, -100 mV, n=5, Figure 2B): Approximately half

B1: plasmin: serine protease of the plasmin(ogen) signal pathway for fibrinolysis (protein, UniProt P00747 20-580; P00747 581-810, looked up)
Plasmin heavy chain A: EPLDDYVNTQGASLFSVTKKQLGAGSIEECAAKCEEDEEFTCRAFQYHSKEQQCVIMAENRKSSIIIRMRDVVLFEKKVYLSECKTGNGKNYRGTMSKTKNGITCQKWSSTSPHRPRFSPATHPSEGLEENYCRNPDNDPQGPWCYTTDPEKRYDYCDILECEEECMHCSGENYDGKISKTMSGLECQAWDSQSPHAHGYIPSKFPNKNLKKNYCRNPDRELRPWCFTTDPNKRWELCDIPRCTTPPPSSGPTYQCLKGTGENYRGNVAVTVSGHTCQHWSAQTPHTHNRTPENFPCKNLDENYCRNPDGKRAPWCHTTNSQVRWEYCKIPSCDSSPVSTEQLAPTAPPELTPVVQDCYHGDGQSYRGTSSTTTTGKKCQSWSSMTPHRHQKTPENYPNAGLTMNYCRNPDADKGPWCFTTDPSVRWEYCNLKKCSGTEASVVAPPPVVLLPDVETPSEEDCMFGNGKGYRGKRATTVTGTPCQDWAAQEPHRHSIFTPETNPRAGLEKNYCRNPDGDVGGPWCYTTNPRKLYDYCDVPQCAAPSFDCGKPQVEPKKCPGR
Plasmin light chain B: VVGGCVAHPHSWPWQVSLRTRFGMHFCGGTLISPEWVLTAAHCLEKSPRPSSYKVILGAHQEVNLEPHVQEIEVSRLFLEPTRKDIALLKLSSPAVITDKVIPACLPSPNYVVADRTECFITGWGETQGTFGAGLLKEAQLPVIENKVCNRYEFLNGRVQSTELCAGHLAGGTDSCQGDSGGPLVCFEKDKYILQGVTSWGLGCARPNKPGVYVRVSRFVTWIEGVMRNN
modifications: Plasmin
notes: serine protease of the plasmin(ogen) signal pathway for fibrinolysis
effect of pre-treatment on δ802αβγ-ENaC activity (oocytes pre-treated, currents at -100 mV, n=5, Figure 3D): potentiated
